System: Lox-IMVI melanoma cell line
Assay: Lox-IMVI anti-proliferative assay (growth inhibition, Cell Titer-Glo)
Type: cell-based, human
Conditions: Homo sapiens; IC50 activity level in the cell-based Lox-IMVI anti-proliferative assay; read-out: Activity
Outline: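 Viability read by ATP luminescence (Cell Titer-Glo) at t0 and after 72 h at 37 °C, 5% CO2, with normalisation to DMSO-treated cells. Compound tested at 0.5 nM–10 μM in 3-fold, 10-point series (0.2% DMSO final) on Lox-IMVI in RPMI+10% FBS; IC50 by 4-parameter sigmoidal fit.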

Structure (SMILES)	IC50
NC(=O)[C@H]1CC[C@@H](n2c(Nc3c(F)cc(Cl)cc3F)nc3cnc(NC4CCCC4)nc32)CC1 [Example 120, (1s,4s)-4-(8-(4-chloro-2,6-difluorophenylamino)-2-(cyclopentylamino)-9H-purin-9-yl)cyclohexanecarboxamide]	250 to 500 nM
NC(=O)[C@H]1CC[C@@H](n2c(Nc3c(Cl)cc(F)cc3Cl)nc3cnc(NC4CCCC4)nc32)CC1 [Example 121, (1s,4s)-4-(2-(cyclopentylamino)-8-(2,6-dichloro-4-fluorophenylamino)-9H-purin-9-yl)cyclohexanecarboxamide]	500 to 1000 nM
NC(=O)[C@H]1CC[C@@H](n2c(Nc3c(F)cc(Cl)cc3Cl)nc3cnc(NC4CCCC4)nc32)CC1 [Example 122, (1s,4s)-4-(2-(cyclopentylamino)-8-(2,4-dichloro-6-fluorophenylamino)-9H-purin-9-yl)cyclohexanecarboxamide]	250 to 500 nM
CC(C)Nc1ncc2nc(Nc3c(Cl)cc(F)cc3Cl)n([C@H]3CC[C@@H](C(N)=O)CC3)c2n1 [Example 123, (1s,4s)-4-(8-(2,6-dichloro-4-fluorophenylamino)-2-(isopropylamino)-9H-purin-9-yl)cyclohexanecarboxamide]	500 to 1000 nM
CC(C)Nc1ncc2nc(Nc3c(F)cc(Cl)cc3F)n([C@H]3CC[C@@H](C(N)=O)CC3)c2n1 [Example 124, (1s,4s)-4-(8-(4-chloro-2,6-difluorophenylamino)-2-(isopropylamino)-9H-purin-9-yl)cyclohexanecarboxamide]	> 1000 nM
CC(C)Nc1ncc2nc(Nc3c(F)cc(F)cc3Cl)n([C@H]3CC[C@@H](C(N)=O)CC3)c2n1 [Example 125, (1s,4s)-4-(8-(2-chloro-4,6-difluorophenylamino)-2-(isopropylamino)-9H-purin-9-yl)cyclohexanecarboxamide]	500 to 1000 nM
CC[C@H](CO)Nc1ncc2nc(Nc3c(Cl)cc(F)cc3Cl)n([C@H]3CC[C@@H](C(N)=O)CC3)c2n1 [Example 126, (1S,4s)-4-(8-(2,6-dichloro-4-fluorophenylamino)-2-((R)-1-hydroxybutan-2-ylamino)-9H-purin-9-yl)cyclohexanecarboxamide]	> 1000 nM
CC(C)(C)OC(=O)N1CC[C@H](Nc2ncc3nc(Nc4c(F)cc(F)cc4F)n([C@H]4CC[C@@H](C(N)=O)CC4)c3n2)[C@H](F)C1 [Example 127, (3R,4S)-tert-butyl 4-(9-((1s,4R)-4-carbamoylcyclohexyl)-8-(2,4,6-trifluorophenylamino)-9H-purin-2-ylamino)-3-fluoropiperidine-1-carboxylate]	> 1000 nM
CC(C)(C)OC(=O)N1CC[C@H](Nc2ncc3nc(Nc4c(F)cccc4F)n([C@H]4CC[C@@H](C(N)=O)CC4)c3n2)[C@H](F)C1 [Example 128, (3R,4S)-tert-butyl 4-(9-((1s,4R)-4-carbamoylcyclohexyl)-8-(2,6-difluorophenylamino)-9H-purin-2-ylamino)-3-fluoropiperidine-1-carboxylate]	> 1000 nM
NC(=O)[C@H]1CC[C@@H](n2c(Nc3c(F)cc(Cl)cc3F)nc3cnc(NC4CCC4)nc32)CC1 [Example 129, (1s,4s)-4-(8-(4-chloro-2,6-difluorophenylamino)-2-(cyclobutylamino)-9H-purin-9-yl)cyclohexanecarboxamide]	> 1000 nM
NC(=O)[C@H]1CC[C@@H](n2c(Nc3c(F)cc(Cl)cc3Cl)nc3cnc(NC4CCC4)nc32)CC1 [Example 130, (1s,4s)-4-(2-(cyclobutylamino)-8-(2,4-dichloro-6-fluorophenylamino)-9H-purin-9-yl)cyclohexanecarboxamide]	> 1000 nM
C[C@H](CO)Nc1ncc2nc(Nc3c(Cl)cc(F)cc3Cl)n([C@H]3CC[C@@H](C(N)=O)CC3)c2n1 [Example 131, (1S,4s)-4-(8-(2,6-dichloro-4-fluorophenylamino)-2-((R)-1-hydroxypropan-2-ylamino)-9H-purin-9-yl)cyclohexanecarboxamide]	> 1000 nM
C[C@H](CO)Nc1ncc2nc(Nc3c(F)cc(Cl)cc3F)n([C@H]3CC[C@@H](C(N)=O)CC3)c2n1 [Example 132, (1S,4s)-4-(8-(4-chloro-2,6-difluorophenylamino)-2-((R)-1-hydroxypropan-2-ylamino)-9H-purin-9-yl)cyclohexanecarboxamide]	> 1000 nM
C[C@H](CO)Nc1ncc2nc(Nc3c(F)cc(Cl)cc3Cl)n([C@H]3CC[C@@H](C(N)=O)CC3)c2n1 [Example 133, (1S,4s)-4-(8-(2,4-dichloro-6-nuorophenylamino)-2-((R)-1-hydroxypropan-2-ylamino)-9H-purin-9-yl)cyclohexanecarboxamide]	500 to 1000 nM
C[C@H](CO)Nc1ncc2nc(Nc3c(F)cc(F)cc3Cl)n([C@H]3CC[C@@H](C(N)=O)CC3)c2n1 [Example 134, (1S,4s)-4-(8-(2-chloro-4,6-difluorophenylamino)-2-((R)-1-hydroxypropan-2-ylamino)-9H-purin-9-yl)cyclohexanecarboxamide]	> 1000 nM
C[C@@H](CO)Nc1ncc2nc(Nc3c(F)cc(Cl)cc3Cl)n([C@H]3CC[C@@H](C(N)=O)CC3)c2n1 [Example 135, (1R,4s)-4-(8-(2,4-dichloro-6-fluorophenylamino)-2-((S)-1-hydroxypropan-2-ylamino)-9H-purin-9-yl)cyclohexanecarboxamide]	< 250 nM
C[C@@H](CO)Nc1ncc2nc(Nc3c(F)cc(F)cc3Cl)n([C@H]3CC[C@@H](C(N)=O)CC3)c2n1 [Example 136, (1R,4s)-4-(8-(2-chloro-4,6-difluorophenylamino)-2-((S)-1-hydroxypropan-2-ylamino)-9H-purin-9-yl)cyclohexanecarboxamide]	500 to 1000 nM
CC[C@H](CO)Nc1ncc2nc(Nc3c(Cl)cc(Cl)cc3Cl)n([C@H]3CC[C@@H](C(N)=O)CC3)c2n1 [Example 137, (1S,4s)-4-(2-((R)-1-hydroxybutan-2-ylamino)-8-(2,4,6-trichlorophenylamino)-9H-purin-9-yl)cyclohexanecarboxamide]	> 1000 nM
NC(=O)[C@H]1CC[C@@H](n2c(Nc3c(Cl)cc(Cl)cc3Cl)nc3cnc(N[C@H]4CCNC[C@H]4F)nc32)CC1 [Example 138, (1R,4s)-4-(2-((3R,4S)-3-fluoropiperidin-4-ylamino)-8-(2,4,6-trichlorophenylamino)-9H-purin-9-yl)cyclohexanecarboxamide]	> 1000 nM
NC(=O)[C@H]1CC[C@@H](n2c(Nc3cccc(F)c3F)nc3cnc(NC4CCCC4)nc32)CC1 [Example 139, (1s,4s)-4-(2-(cyclopentylamino)-8-(2,3-difluorophenylamino)-9H-purin-9-yl)cyclohexanecarboxamide]	> 1000 nM
NC(=O)[C@H]1CC[C@@H](n2c(Nc3cccc(Cl)c3F)nc3cnc(NC4CCCC4)nc32)CC1 [Example 140, (1s,4s)-4-(8-(3-chloro-2-fluorophenylamino)-2-(cyclopentylamino)-9H-purin-9-yl)cyclohexanecarboxamide]	> 1000 nM
NC(=O)[C@H]1CC[C@@H](n2c(Nc3c(F)ccc(F)c3F)nc3cnc(NC4CCCC4)nc32)CC1 [Example 141, (1s,4s)-4-(2-(cyclopentylamino)-8-(2,3,6-trifluorophenylamino)-9H-purin-9-yl)cyclohexanecarboxamide]	500 to 1000 nM
COC[C@H](C)Nc1ncc2nc(Nc3c(Cl)cc(Cl)cc3Cl)n([C@H]3CC[C@@H](C(N)=O)CC3)c2n1 [Example 142, (1R,4s)-4-(2-((S)-1-methoxypropan-2-ylamino)-8-(2,4,6-trichlorophenylamino)-9H-purin-9-yl)cyclohexanecarboxamide]	> 1000 nM
CC[C@@H](CO)Nc1ncc2nc(Nc3c(F)cc(F)cc3F)n([C@H]3CC[C@@H](C(N)=O)CC3)c2n1 [Example 143, (1R,4s)-4-(2-((S)-1-hydroxybutan-2-ylamino)-8-(2,4,6-trifluorophenylamino)-9H-purin-9-yl)cyclohexanecarboxamide]	> 1000 nM
CC[C@@H](CO)Nc1ncc2nc(Nc3c(F)cccc3Cl)n([C@H]3CC[C@@H](C(N)=O)CC3)c2n1 [Example 144, (1R,4s)-4-(8-(2-chloro-6-fluorophenylamino)-2-((S)-1-hydroxybutan-2-ylamino)-9H-purin-9-yl)cyclohexanecarboxamide]	> 1000 nM
CC[C@@H](CO)Nc1ncc2nc(Nc3c(Cl)cc(F)cc3Cl)n([C@H]3CC[C@@H](C(N)=O)CC3)c2n1 [Example 145, (1R,4s)-4-(8-(2,6-dichloro-4-fluorophenylamino)-2-((S)-1-hydroxybutan-2-ylamino)-9H-purin-9-yl)cyclohexanecarboxamide]	> 1000 nM
CC[C@@H](CO)Nc1ncc2nc(Nc3c(F)cc(Cl)cc3F)n([C@H]3CC[C@@H](C(N)=O)CC3)c2n1 [Example 146, (1R,4s)-4-(8-(4-chloro-2,6-difluorophenylamino)-2-((S)-1-hydroxybutan-2-ylamino)-9H-purin-9-yl)cyclohexanecarboxamide]	500 to 1000 nM
CC[C@@H](CO)Nc1ncc2nc(Nc3c(F)cc(F)cc3Cl)n([C@H]3CC[C@@H](C(N)=O)CC3)c2n1 [Example 147, (1R,4s)-4-(8-(2-chloro-4,6-difluorophenylamino)-2-((S)-1-hydroxybutan-2-ylamino)-9H-purin-9-yl)cyclohexanecarboxamide]	> 1000 nM
CC[C@@H](CO)Nc1ncc2nc(Nc3c(F)ccc(F)c3F)n([C@H]3CC[C@@H](C(N)=O)CC3)c2n1 [Example 148, (1R,4s)-4-(2-((S)-1-hydroxybutan-2-ylamino)-8-(2,3,6-trifluorophenylamino)-9H-purin-9-yl)cyclohexanecarboxamide]	> 1000 nM
CC[C@@H](CO)Nc1ncc2nc(Nc3ccc(Cl)cc3Cl)n([C@H]3CC[C@@H](C(N)=O)CC3)c2n1 [Example 149, (1R,4s)-4-(8-(2,4-dichlorophenylamino)-2-((S)-1-hydroxybutan-2-ylamino)-9H-purin-9-yl)cyclohexanecarboxamide]	> 1000 nM
